Assay results: patent US9149038B2, “4-amino-6-(heterocyclic)picolinates and 6-amino-2-(heterocyclic)pyrimidine-4-carboxylates and their use as herbicides” (Dow AgroSciences LLC, priority 2013, dated 2015)
Like-named read-outs stand apart in the source and are kept apart here.

How the values were obtained:
[1] = test system: Key Broadleaf Weed and Crop Species; assay: Post-Emergent Test II: postemergent herbicidal activity, visual rating after 14 d (Table 7); format: in vivo; conditions: post-emergence, 336 h; for pest or weed control at 35 g/ha: 35 g ai/ha; for pest or weed control at 70 g/ha: 70 g ai/ha; for pest or weed control at 140 g/ha: 140 g ai/ha
In short: (§1)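 Scoring is visual, 0-100, at 14 d after application, comparing treated with untreated plants. Application: overhead track spray at 187 L/ha onto seedlings at 1-2 true leaves, in surfactant/crop-oil carrier.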

[2] = test system: Key Grass and Sedge Weeds as well as Grass Crops; assay: Post-Emergent Test II: postemergent herbicidal activity, visual rating after 14 d (Table 8); format: in vivo; conditions: post-emergence, 336 h; for pest or weed control at 35 g/ha: 35 g ai/ha; for pest or weed control at 70 g/ha: 70 g ai/ha; for pest or weed control at 140 g/ha: 140 g ai/ha
In short: as §1

[3] = lambsquarters (Chenopodium album), read-out: Visual Growth Reduction (%) 14 Days After Application CHEAL
[4] = oilseed rape, canola (Brassica napus), read-out: Visual Growth Reduction (%) 14 Days After Application BRSNN
[5] = redroot pigweed (Amaranthus retroflexus), read-out: Visual Growth Reduction (%) 14 Days After Application AMARE
[6] = sunflower (Helianthus annuus), read-out: Visual Growth Reduction (%) 14 Days After Application HELAN
[7] = velvetleaf (Abutilon theophrasti), read-out: Visual Growth Reduction (%) 14 Days After Application ABUTH
[8] = wild poinsettia (Euphorbia heterophylla), read-out: Visual Growth Reduction (%) 14 Days After Application EPHHL
[9] = barnyardgrass (Echinochloa crus-galli), read-out: Visual Growth Reduction (%) 14 Days After Application ECHCG
[10] = giant foxtail (Setaria faberi), read-out: Visual Growth Reduction (%) 14 Days After Application SETFA
[11] = maize, corn (Zea mays), read-out: Visual Growth Reduction (%) 14 Days After Application ZEAMX
[12] = rice (Oryza sativa), read-out: Visual Growth Reduction (%) 14 Days After Application ORYSA
[13] = wheat, spring (Triticum aestivum), read-out: Visual Growth Reduction (%) 14 Days After Application TRZAS
[14] = yellow nutsedge (Cyperus esculentus), read-out: Visual Growth Reduction (%) 14 Days After Application CYPES
[15] = ABUTH: velvetleaf (Abutilon theophrasti), read-out: Visual Growth Reduction (%) 14 Days After Application ABUTH
[16] = AMARE: redroot pigweed (Amaranthus retroflexus), read-out: Visual Growth Reduction (%) 14 Days After Application AMARE
[17] = BRSNN: oilseed rape, canola (Brassica napus), read-out: Visual Growth Reduction (%) 14 Days After Application BRSNN
[18] = CHEAL: lambsquarters (Chenopodium album), read-out: Visual Growth Reduction (%) 14 Days After Application CHEAL
[19] = EPHHL: wild poinsettia (Euphorbia heterophylla), read-out: Visual Growth Reduction (%) 14 Days After Application EPHHL
[20] = HELAN: sunflower (Helianthus annuus), read-out: Visual Growth Reduction (%) 14 Days After Application HELAN
[21] = barnyardgrass (Echinochloa crus-galli), read-out: Visual Growth Reduction (%) 14 Days After Application, ECHCG
[22] = giant foxtail (Setaria faberi), read-out: Visual Growth Reduction (%) 14 Days After Application, SETFA
[23] = maize, corn (Zea mays), read-out: Visual Growth Reduction (%) 14 Days After Application, ZEAMX
[24] = rice (Oryza sativa), read-out: Visual Growth Reduction (%) 14 Days After Application, ORYSA
[25] = wheat, spring (Triticum aestivum), read-out: Visual Growth Reduction (%) 14 Days After Application, TRZAS
[26] = yellow nutsedge (Cyperus esculentus), read-out: Visual Growth Reduction (%) 14 Days After Application, CYPES

Nc1c(F)c(-c2ccc(Br)c3c2OC(F)(F)O3)nc(C(=O)O)c1Cl [Compound 80]
pest or weed control at 35 g/ha [1, 3]: 95 to 100%
pest or weed control at 70 g/ha [1, 3]: 95 to 100%
pest or weed control at 140 g/ha [1, 3]: 95 to 100%
pest or weed control at 35 g/ha [1, 4]: 85 to 94%
pest or weed control at 70 g/ha [1, 4]: 85 to 94%
pest or weed control at 140 g/ha [1, 4]: 85 to 94%
pest or weed control at 35 g/ha [1, 5]: 95 to 100%
pest or weed control at 70 g/ha [1, 5]: 95 to 100%
pest or weed control at 140 g/ha [1, 5]: 95 to 100%
pest or weed control at 35 g/ha [1, 6]: 85 to 94%
pest or weed control at 70 g/ha [1, 6]: 85 to 94%
pest or weed control at 140 g/ha [1, 6]: 85 to 94%
pest or weed control at 35 g/ha [1, 7]: 60 to 74%
pest or weed control at 70 g/ha [1, 7]: 75 to 84%
pest or weed control at 140 g/ha [1, 7]: 85 to 94%
pest or weed control at 35 g/ha [1, 8]: 0 to 29%
pest or weed control at 70 g/ha [1, 8]: 0 to 29%
pest or weed control at 140 g/ha [1, 8]: 0 to 29%
pest or weed control at 35 g/ha [2, 9]: 0 to 29%
pest or weed control at 70 g/ha [2, 9]: 0 to 29%
pest or weed control at 140 g/ha [2, 9]: 0 to 29%
pest or weed control at 35 g/ha [2, 10]: 0 to 29%
pest or weed control at 70 g/ha [2, 10]: 0 to 29%
pest or weed control at 140 g/ha [2, 10]: 0 to 29%
pest or weed control at 35 g/ha [2, 11]: 45 to 59%
pest or weed control at 70 g/ha [2, 11]: 60 to 74%
pest or weed control at 140 g/ha [2, 11]: 60 to 74%
pest or weed control at 35 g/ha [2, 12]: 0 to 29%
pest or weed control at 70 g/ha [2, 12]: 0 to 29%
pest or weed control at 140 g/ha [2, 12]: 0 to 29%
pest or weed control at 35 g/ha [2, 13]: 0 to 29%
pest or weed control at 70 g/ha [2, 13]: 0 to 29%
pest or weed control at 140 g/ha [2, 13]: 0 to 29%
pest or weed control at 35 g/ha [2, 14]: 0 to 29%
pest or weed control at 70 g/ha [2, 14]: 0 to 29%
pest or weed control at 140 g/ha [2, 14]: 0 to 29%

Nc1c(F)c(-c2ccc(Cl)c3c2OC(F)(F)O3)nc(C(=O)O)c1Cl [Compound 82]
pest or weed control at 70 g/ha [1, 15]: 60 to 74%
pest or weed control at 140 g/ha [1, 15]: 75 to 84%
pest or weed control at 70 g/ha [1, 16]: 95 to 100%
pest or weed control at 140 g/ha [1, 16]: 95 to 100%
pest or weed control at 70 g/ha [1, 17]: 95 to 100%
pest or weed control at 140 g/ha [1, 17]: 95 to 100%
pest or weed control at 70 g/ha [1, 18]: 95 to 100%
pest or weed control at 140 g/ha [1, 18]: 95 to 100%
pest or weed control at 70 g/ha [1, 19]: 0 to 29%
pest or weed control at 140 g/ha [1, 19]: 0 to 29%
pest or weed control at 70 g/ha [1, 20]: 85 to 94%
pest or weed control at 140 g/ha [1, 20]: 95 to 100%
pest or weed control at 35 g/ha [1, 3]: 95 to 100%
pest or weed control at 35 g/ha [1, 4]: 95 to 100%
pest or weed control at 35 g/ha [1, 5]: 95 to 100%
pest or weed control at 35 g/ha [1, 6]: 85 to 94%
pest or weed control at 35 g/ha [1, 7]: 30 to 44%
pest or weed control at 35 g/ha [1, 8]: 0 to 29%
pest or weed control at 35 g/ha [2, 9]: 0 to 29%
pest or weed control at 70 g/ha [2, 21]: 0 to 29%
pest or weed control at 140 g/ha [2, 21]: 0 to 29%
pest or weed control at 35 g/ha [2, 10]: 0 to 29%
pest or weed control at 70 g/ha [2, 22]: 0 to 29%
pest or weed control at 140 g/ha [2, 22]: 0 to 29%
pest or weed control at 35 g/ha [2, 11]: 45 to 59%
pest or weed control at 70 g/ha [2, 23]: 60 to 74%
pest or weed control at 140 g/ha [2, 23]: 60 to 74%
pest or weed control at 35 g/ha [2, 12]: 0 to 29%
pest or weed control at 70 g/ha [2, 24]: 30 to 44%
pest or weed control at 140 g/ha [2, 24]: 30 to 44%
pest or weed control at 35 g/ha [2, 13]: 60 to 74%
pest or weed control at 70 g/ha [2, 25]: 60 to 74%
pest or weed control at 140 g/ha [2, 25]: 75 to 84%
pest or weed control at 35 g/ha [2, 14]: 0 to 29%
pest or weed control at 70 g/ha [2, 26]: 30 to 44%
pest or weed control at 140 g/ha [2, 26]: 45 to 59%
